Values quoted from earlier work as cited in US20160022623A1, “COMPOSITION AND USE” (THE UNIVERSITY OF NOTTINGHAM, priority 2013, published 2016).

Columns and labels:
[1] = 24 weeks
[2] = compared to control (euglycaemic hyperinsulinaemia)
[3] = morning following the clamp, overnight fast

Increase in muscle total carnitine content compared to carbohydrate feeding alone ([1]; 1.36 g L-carnitine with 80 g carbohydrate beverage twice daily): 30% | Increase in muscle free carnitine availability ([1]; low intensity exercise (50% VO2max), vs Control): 80% | Increase in skeletal muscle total carnitine content (intravenous infusion, 6 h clamp, at rest): 15%
SMILES: C[N+](C)(C)C[C@H](O)CC(=O)[O-] [L-carnitine]
Reduction in muscle glycogen utilisation ([1]; low intensity exercise (50% VO2max)): 50% | Decrease in insulin stimulated muscle PDC activation [2]: 30% | Decrease in muscle lactate accumulation [2]: 40% | Increase in muscle glycogen content [3]: 30% | Increase in muscle long-chain acyl-CoA content [3]: 40%
